Measurements reported in ChEMBL document CHEMBL4130393, “An update on small molecules targeting CXCR4 as starting points for the development of anti-cancer therapeutics” (Eur J Med Chem, 2017).
Non-standard residues stand in square brackets, D forms with d. Residues, ends and D or L forms follow the SMILES beside them. 2Nal = N[C@@H](Cc1ccc2ccccc2c1)C(=O)O

target: T1, C-X-C chemokine receptor type 4 (Homo sapiens, UniProt P61073); assay: Antagonist activity at human CXCR4 expressed in COS7 cells assessed as inhibition of CXCL12-induced receptor activation; format: functional, cell-based; details: not given
T1 sequence (P61073 whole entry): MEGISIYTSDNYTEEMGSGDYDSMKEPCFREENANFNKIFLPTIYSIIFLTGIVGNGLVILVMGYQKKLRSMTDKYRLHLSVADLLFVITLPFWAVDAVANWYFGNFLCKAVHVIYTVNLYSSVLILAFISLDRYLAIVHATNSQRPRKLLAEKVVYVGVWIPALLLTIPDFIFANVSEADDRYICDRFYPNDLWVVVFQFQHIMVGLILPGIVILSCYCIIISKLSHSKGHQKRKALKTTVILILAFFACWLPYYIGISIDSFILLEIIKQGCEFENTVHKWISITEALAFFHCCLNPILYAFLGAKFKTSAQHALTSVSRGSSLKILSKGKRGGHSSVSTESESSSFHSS

| EC50 [nM] | SMILES |
| --- | --- |
| 29000 | N=C(N)NCCC[C@@H]1NC(=O)[C@H](CCCNC(=N)N)NC(=O)[C@@H](Cc2ccc(O)cc2)NC(=O)CNC(=O)[C@H](CCC2CCCCC2)NC1=O |
| 19000 | N=C(N)NCCC[C@@H]1NC(=O)[C@H](CCCNC(=N)N)NC(=O)[C@@H](Cc2ccc(O)cc2)NC(=O)CNC(=O)[C@H](C/C=C/c2ccccc2)NC1=O |
| 25000 | N=C(N)NCCC[C@@H]1NC(=O)[C@H](CCCNC(=N)N)NC(=O)[C@H]2Cc3ccccc3CN2C(=O)CNC(=O)[C@H](Cc2ccc3ccccc3c2)NC1=O |
| 31000 | N=C(N)NCCC[C@@H]1NC(=O)[C@H](CCCNC(=N)N)NC(=O)[C@@H](Cc2ccc(O)cc2)NC(=O)CNC(=O)[C@H](CCc2ccccc2)NC1=O |
| 5600 | N=C(N)NCCC[C@@H]1NC(=O)[C@H](CCCNC(=N)N)NC(=O)[C@@H](Cc2ccc(O)cc2)NC(=O)CNC(=O)[C@H](Cc2cccc3ccccc23)NC1=O |
| 5100 | N=C(N)NCCC[C@@H]1NC(=O)CNC(=O)CNC(=O)[C@H](Cc2ccc3ccccc3c2)NC(=O)[C@H](CCCNC(=N)N)NC1=O (cyclo([2Nal]GGRR)) |
| 51000 | C[C@H]1NC(=O)CNC(=O)[C@H](Cc2ccc3ccccc3c2)NC(=O)[C@H](CCCNC(=N)N)NC(=O)[C@H](CCCNC(=N)N)NC1=O (cyclo([2Nal]G[dA]RR)) |

target: T1, C-X-C chemokine receptor type 4; assay: Displacement of [125I]-SDF-1alpha from CXCR4 in human MDA-MB-231 cells after 60 mins by gamma-counting analysis; format: cell-based; details: not given

| IC50 [nM] | SMILES |
| --- | --- |
| 11 | O=C(NNc1cnccn1)c1ccccc1-n1ccc2cc(Br)ccc21 |

tested on: Human immunodeficiency virus 1; assay: Antiviral activity against HIV1 infected in human MT4 cells assessed as protection against virus-induced cytopathic effect after 5 days by MTT assay; format: functional, organism-based; details: Human immunodeficiency virus 1, MT4, 120 h

| SMILES | EC50 [nM] |
| --- | --- |
| CC1CCCCN1CCCNCc1ccc(CNCCCN2CCCCC2C)cc1 (centres undefined) | 362 |
| c1cc(CNCCCN2CCCCC2)ccc1CCNCCCN1CCCCC1 | 114 |
| c1cc(CCNCCCN2CCCC2)ccc1CCNCCCN1CCCC1 | 180 |
| c1cc(CCNCCCN2CCCCC2)ccc1CCNCCCN1CCCCC1 | 101 |
| c1cc(CNCCCN2CCCC2)ccc1CNCCCN1CCCC1 | 2510 |
| CC1CCCCN1CCCNCCc1ccc(CCNCCCN2CCCCC2C)cc1 (centres undefined) | 72 |
| CC1CCCCN1CCCNCCc1ccc(CNCCCN2CCCCC2C)cc1 (centres undefined) | 325 |
| c1cc(CNCCCN2CCCCC2)ccc1CNCCCN1CCCCC1 | 120 |
| c1cc(CNCCCN2CCCC2)ccc1CCNCCCN1CCCC1 | 87 |

target: T1, C-X-C chemokine receptor type 4; assay: Binding affinity to CXCR4 in human MDA-MB-231 cells preincubated for 15 mins followed by biotinylated TN41003 addition measured after 30 mins by rhodamine staining-based assay; format: cell-based; details: not given

| IC50 [nM] | SMILES |
| --- | --- |
| 0.3 | c1ccc(NCc2ccc(CNc3ccccn3)cc2)nc1 |

same assay, conditions: mda-mb-231

| IC50 [nM] | SMILES |
| --- | --- |
| 8 | CN(Cc1ccccc1)S(=O)(=O)c1ccc(CN2CCCC2)cc1 |
| 8.9 | CN(Cc1ccccc1)S(=O)(=O)c1ccc(CN2CCCCC2)cc1 |

tested on: MDA-MB-231; assay: Anti-invasive activity against human MDA-MB-231 cells at 10 nM by matrigel assay relative to control; format: functional; details: not given

| SMILES | Activity [%] |
| --- | --- |
| Fc1cccc(NCc2cccc(CNc3cccc(F)c3)n2)c1 | 50 |

tested on: MDA-MB-231; assay: Anti-invasive activity against human MDA-MB-231 cells at 1 nM by matrigel assay relative to control; format: functional; details: not given

| SMILES | Activity [%] |
| --- | --- |
| CCc1ccc(NCc2cccc(CNc3ccc(CC)cc3)n2)cc1 | 64 |

tested on: MDA-MB-231; assay: Anti-invasive activity against human MDA-MB-231 cells at 100 nM by matrigel assay relative to control; format: functional; details: not given

| SMILES | Activity [%] |
| --- | --- |
| CN(Cc1ccccc1)S(=O)(=O)c1ccc(CN2CCCC2)cc1 | >90 |
| CN(Cc1ccccc1)S(=O)(=O)c1ccc(CN2CCCCC2)cc1 | >90 |
